From article PMC3388095, “Fluorophore Labeled Kinase Detects Ligands That Bind within the MAPK Insert of p38α Kinase” (PLoS ONE, 2012)

Columns and labels:
Assay in all cases: Kinase selectivity profile, 33P-ATP filter-binding assay
Type in all cases: biochemical
CK2 = CK2 (Homo sapiens, UniProt P68400)
Protocol: (§1) Figure 5 Kinase selectivity profile of 1b. Compound 1b was profiled against a selected panel of 95 different kinases at a concentration of 10 µM employing a radioactive (^33P-ATP) filter-binding assay (National Centre for Protein Kinase Profiling, Dundee). The numbers represent the remaining kinase activity in %. […] TEXT PRINTED IN THE PICTURE: no label printed: Aurora B: 53; MNK2: 67; MINK1: 69; HER4: 71; MKK1: 75; PKBβ: 75; PHK: 76; PIM2: 76; PIM3: 77; CHK2: 78; PKD1: 79; TBK1: 79; PAK4: 80; Lck: 80; GSK3β: 80; IGF-1R: 81; p38δ MAPK: 81; PIM1: 82; SRPK1: 83; SmMLCK: 83; MAPKAP-K3: 84; EPH A2: 85; MELK: 85; CK2: 85; CK1: 86; CAMK1: 86; PLK1: 87; MST2: 87; IR-HIS: 87; BTK: 87; HIPK1: 87; p38α MAPK: 88; DYRK2: 88; JNK3: 88; PAK5: 88; IKKε: 89; p38β MAPK: 89; NUAK1: 90; PAK2: 90; MNK1: 91; ERK8: 91; GCK: 91; PRAK: 91; MLK1: 92; SGK1: 92; PAK6: 92; TTK: 92; BRSK2: 92; MARK4: 93; CHK1: 93; RIPK2: 94; CDK2-Cyclin A: 94; JNK1: 94; AMPK: 94; VEG-FR: 95; DYRK1A: 95; CAMKKβ: 95; PKCα: 96; S6K1: 96; MSK1: 96; PKCz: 96; YES1: 96; RSK1: 97; IRAK4: 97; DYRK3: 97; IKKβ: 97; ERK2: 98; MLK3: 98; RSK2: 98; LKB1: 98; MAPKAP-K2: 98; ERK1: 99; FGF-R1: 99; SYK: 99; MST4: 99; MARK3: 99; MARK2: 100; PDK1: 100; JNK2: 101; HIPK2: 101; BRSK1: 102; EF2K: 102; PRK2: 103; Aurora A: 104; IRR: 104; CSK: 104; PKA: 104; NEK6: 105; p38γ MAPK: 105; Src: 107; PKBα: 109; ROCK 2: 109; EPH-B3: 112; HIPK3: 115; NEK2α: 119 DOUBTS OF THE COPYIST ABOUT THIS PICTURE: The picture prints no compound label and no measure or unit for the numbers; only the colour scale 'Inhibition weak/strong' is printed. / PKCz: the last letter may be z or ζ / NEK2α: the last letter may be a or α / IKKε: the last letter may be ε or e

PKCα = PKCα (Homo sapiens, UniProt P17252)
Protocol: as §1

DYRK1A = DYRK1A (Homo sapiens, UniProt Q13627)
Protocol: as §1

IGF-1R = IGF-1R (Homo sapiens, UniProt P08069)
Protocol: as §1

JNK3 = JNK3 (Homo sapiens, UniProt P53779)
Protocol: as §1

BRSK1 = BRSK1 (Homo sapiens, UniProt Q8TDC3)
Protocol: as §1

PRK2 = PRK2 (Homo sapiens, UniProt Q16513)
Protocol: as §1

PIM1 = PIM1 (Homo sapiens, UniProt P11309)
Protocol: as §1

DYRK3 = DYRK3 (Homo sapiens, UniProt O43781)
Protocol: as §1

SYK = SYK (Homo sapiens, UniProt P43405)
Protocol: as §1

IKKε = IKKε (Homo sapiens, UniProt Q14164)
Protocol: as §1

PDK1 = PDK1 (Homo sapiens, UniProt O15530)
Protocol: as §1

PKCz = PKCz (Homo sapiens, UniProt Q05513)
Protocol: as §1

p38β MAPK = p38β MAPK (Homo sapiens, UniProt Q15759)
Protocol: as §1

CK1 = CK1 (Homo sapiens, UniProt P48730)
Protocol: as §1

ROCK 2 = ROCK 2 (Rattus norvegicus, UniProt Q62868)
Protocol: as §1

JNK2 = JNK2 (Homo sapiens, UniProt P45984)
Protocol: as §1

JNK1 = JNK1 (Homo sapiens, UniProt P45983)
Protocol: as §1

HIPK3 = HIPK3 (Homo sapiens, UniProt Q9H422)
Protocol: as §1

HIPK1 = HIPK1 (Homo sapiens, UniProt Q86Z02)
Protocol: as §1

VEG-FR = VEG-FR (Homo sapiens, UniProt P17948)
Protocol: as §1

PKA = PKA (Homo sapiens, UniProt P17612)
Protocol: as §1

GCK = GCK (Homo sapiens, UniProt Q12851)
Protocol: as §1

p38γ MAPK = p38γ MAPK (Homo sapiens, UniProt P53778)
Protocol: as §1

MKK1 = MKK1 (Homo sapiens, UniProt Q02750)
Protocol: as §1

PKBα = PKBα (Homo sapiens, UniProt P31749)
Protocol: as §1

NUAK1 = NUAK1 (Homo sapiens, UniProt O60285)
Protocol: as §1

Sequence of NUAK1 (O60285 whole entry): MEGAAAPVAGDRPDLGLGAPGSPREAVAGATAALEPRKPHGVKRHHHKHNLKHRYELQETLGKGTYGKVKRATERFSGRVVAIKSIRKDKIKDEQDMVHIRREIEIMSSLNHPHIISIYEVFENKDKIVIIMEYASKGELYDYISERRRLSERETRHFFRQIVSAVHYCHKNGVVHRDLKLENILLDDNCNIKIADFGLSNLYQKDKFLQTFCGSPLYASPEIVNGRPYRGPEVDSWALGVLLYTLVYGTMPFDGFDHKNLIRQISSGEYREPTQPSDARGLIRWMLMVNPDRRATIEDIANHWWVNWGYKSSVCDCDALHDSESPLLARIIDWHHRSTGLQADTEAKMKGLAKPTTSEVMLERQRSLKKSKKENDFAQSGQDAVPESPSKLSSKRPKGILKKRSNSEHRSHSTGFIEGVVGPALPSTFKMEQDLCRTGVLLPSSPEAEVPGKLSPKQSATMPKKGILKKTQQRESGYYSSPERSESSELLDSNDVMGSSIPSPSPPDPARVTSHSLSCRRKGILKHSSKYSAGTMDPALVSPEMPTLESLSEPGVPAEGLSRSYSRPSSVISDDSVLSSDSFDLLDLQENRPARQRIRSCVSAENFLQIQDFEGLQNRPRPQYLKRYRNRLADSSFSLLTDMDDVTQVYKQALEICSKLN
Sequence of PDK1 (O15530 whole entry): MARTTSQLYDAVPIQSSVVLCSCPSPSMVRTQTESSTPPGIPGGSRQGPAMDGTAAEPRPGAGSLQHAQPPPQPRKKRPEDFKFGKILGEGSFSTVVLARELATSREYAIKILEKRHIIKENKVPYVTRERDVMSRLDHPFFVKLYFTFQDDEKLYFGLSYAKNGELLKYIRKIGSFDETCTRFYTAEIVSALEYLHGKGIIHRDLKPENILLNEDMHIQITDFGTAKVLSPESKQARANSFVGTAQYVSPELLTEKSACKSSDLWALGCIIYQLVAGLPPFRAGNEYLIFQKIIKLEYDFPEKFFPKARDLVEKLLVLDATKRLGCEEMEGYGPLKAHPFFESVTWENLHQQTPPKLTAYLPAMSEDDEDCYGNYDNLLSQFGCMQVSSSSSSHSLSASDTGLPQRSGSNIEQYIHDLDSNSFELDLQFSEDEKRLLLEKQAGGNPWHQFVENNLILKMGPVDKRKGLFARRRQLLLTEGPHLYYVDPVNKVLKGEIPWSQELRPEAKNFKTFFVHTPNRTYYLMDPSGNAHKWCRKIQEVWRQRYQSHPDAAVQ
Sequence of IKKε (Q14164 whole entry): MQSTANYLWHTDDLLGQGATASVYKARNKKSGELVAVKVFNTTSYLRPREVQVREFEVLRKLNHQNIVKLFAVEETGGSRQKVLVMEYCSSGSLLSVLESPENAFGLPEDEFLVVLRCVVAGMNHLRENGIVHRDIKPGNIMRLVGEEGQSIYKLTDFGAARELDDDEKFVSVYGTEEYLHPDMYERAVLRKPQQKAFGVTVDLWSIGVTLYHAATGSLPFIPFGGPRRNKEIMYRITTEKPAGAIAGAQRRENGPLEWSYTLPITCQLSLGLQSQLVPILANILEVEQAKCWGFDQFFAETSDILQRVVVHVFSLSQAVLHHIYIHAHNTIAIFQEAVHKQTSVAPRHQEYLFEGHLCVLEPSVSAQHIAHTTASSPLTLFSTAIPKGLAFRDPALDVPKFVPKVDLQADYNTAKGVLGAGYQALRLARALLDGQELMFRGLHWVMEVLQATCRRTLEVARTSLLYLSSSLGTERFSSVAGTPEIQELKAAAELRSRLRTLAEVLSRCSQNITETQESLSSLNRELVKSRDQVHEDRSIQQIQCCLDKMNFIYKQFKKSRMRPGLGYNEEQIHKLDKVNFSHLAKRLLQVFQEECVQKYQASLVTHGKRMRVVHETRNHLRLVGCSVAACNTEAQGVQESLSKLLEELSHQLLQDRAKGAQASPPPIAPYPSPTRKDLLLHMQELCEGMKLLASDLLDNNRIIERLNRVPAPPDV
Sequence of PIM1 (P11309 whole entry): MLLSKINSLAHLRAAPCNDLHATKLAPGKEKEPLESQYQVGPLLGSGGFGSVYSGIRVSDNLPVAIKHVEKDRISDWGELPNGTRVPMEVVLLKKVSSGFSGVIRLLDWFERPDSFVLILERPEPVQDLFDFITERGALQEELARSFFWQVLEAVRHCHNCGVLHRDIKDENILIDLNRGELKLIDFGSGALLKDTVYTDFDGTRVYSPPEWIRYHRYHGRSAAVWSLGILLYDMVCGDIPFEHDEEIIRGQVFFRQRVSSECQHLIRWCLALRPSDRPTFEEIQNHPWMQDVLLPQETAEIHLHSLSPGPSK
Sequence of MKK1 (Q02750 whole entry): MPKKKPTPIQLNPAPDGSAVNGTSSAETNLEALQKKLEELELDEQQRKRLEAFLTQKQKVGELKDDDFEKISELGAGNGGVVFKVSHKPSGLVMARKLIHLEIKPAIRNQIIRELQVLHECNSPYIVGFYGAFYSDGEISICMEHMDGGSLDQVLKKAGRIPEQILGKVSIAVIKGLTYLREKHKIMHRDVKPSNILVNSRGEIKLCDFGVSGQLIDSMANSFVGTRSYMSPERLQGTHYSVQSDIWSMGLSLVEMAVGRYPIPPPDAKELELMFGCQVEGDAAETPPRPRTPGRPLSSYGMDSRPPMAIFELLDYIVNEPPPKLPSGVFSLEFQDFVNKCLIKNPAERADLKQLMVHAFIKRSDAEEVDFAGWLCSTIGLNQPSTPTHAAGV
Sequence of PRK2 (Q16513 whole entry): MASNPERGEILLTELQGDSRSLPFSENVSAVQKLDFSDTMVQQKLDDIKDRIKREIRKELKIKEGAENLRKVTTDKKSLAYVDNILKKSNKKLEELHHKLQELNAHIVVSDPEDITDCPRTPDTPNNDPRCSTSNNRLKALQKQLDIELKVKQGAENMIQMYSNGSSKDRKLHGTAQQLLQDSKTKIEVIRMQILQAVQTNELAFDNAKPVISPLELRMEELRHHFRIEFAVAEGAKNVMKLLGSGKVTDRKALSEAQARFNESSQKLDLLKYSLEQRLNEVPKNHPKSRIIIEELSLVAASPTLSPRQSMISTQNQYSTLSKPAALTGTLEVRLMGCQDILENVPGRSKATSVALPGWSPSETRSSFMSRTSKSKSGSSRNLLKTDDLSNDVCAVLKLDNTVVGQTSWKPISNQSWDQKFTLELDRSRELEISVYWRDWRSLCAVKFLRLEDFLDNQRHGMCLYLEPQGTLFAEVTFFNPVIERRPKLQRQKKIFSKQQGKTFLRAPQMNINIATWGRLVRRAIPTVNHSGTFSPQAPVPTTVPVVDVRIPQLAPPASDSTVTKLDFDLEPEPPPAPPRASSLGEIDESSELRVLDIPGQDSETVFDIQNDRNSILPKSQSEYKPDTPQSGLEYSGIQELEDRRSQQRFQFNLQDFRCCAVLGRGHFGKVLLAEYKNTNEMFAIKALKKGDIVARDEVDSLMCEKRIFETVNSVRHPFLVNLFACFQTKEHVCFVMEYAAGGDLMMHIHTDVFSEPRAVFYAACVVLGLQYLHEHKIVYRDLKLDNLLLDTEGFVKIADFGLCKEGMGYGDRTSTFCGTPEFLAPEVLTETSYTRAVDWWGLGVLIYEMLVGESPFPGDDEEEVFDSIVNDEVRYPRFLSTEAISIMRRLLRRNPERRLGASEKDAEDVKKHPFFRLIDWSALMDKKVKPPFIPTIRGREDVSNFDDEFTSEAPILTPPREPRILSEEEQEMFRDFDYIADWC
Sequence of VEG-FR (P17948 27-1338): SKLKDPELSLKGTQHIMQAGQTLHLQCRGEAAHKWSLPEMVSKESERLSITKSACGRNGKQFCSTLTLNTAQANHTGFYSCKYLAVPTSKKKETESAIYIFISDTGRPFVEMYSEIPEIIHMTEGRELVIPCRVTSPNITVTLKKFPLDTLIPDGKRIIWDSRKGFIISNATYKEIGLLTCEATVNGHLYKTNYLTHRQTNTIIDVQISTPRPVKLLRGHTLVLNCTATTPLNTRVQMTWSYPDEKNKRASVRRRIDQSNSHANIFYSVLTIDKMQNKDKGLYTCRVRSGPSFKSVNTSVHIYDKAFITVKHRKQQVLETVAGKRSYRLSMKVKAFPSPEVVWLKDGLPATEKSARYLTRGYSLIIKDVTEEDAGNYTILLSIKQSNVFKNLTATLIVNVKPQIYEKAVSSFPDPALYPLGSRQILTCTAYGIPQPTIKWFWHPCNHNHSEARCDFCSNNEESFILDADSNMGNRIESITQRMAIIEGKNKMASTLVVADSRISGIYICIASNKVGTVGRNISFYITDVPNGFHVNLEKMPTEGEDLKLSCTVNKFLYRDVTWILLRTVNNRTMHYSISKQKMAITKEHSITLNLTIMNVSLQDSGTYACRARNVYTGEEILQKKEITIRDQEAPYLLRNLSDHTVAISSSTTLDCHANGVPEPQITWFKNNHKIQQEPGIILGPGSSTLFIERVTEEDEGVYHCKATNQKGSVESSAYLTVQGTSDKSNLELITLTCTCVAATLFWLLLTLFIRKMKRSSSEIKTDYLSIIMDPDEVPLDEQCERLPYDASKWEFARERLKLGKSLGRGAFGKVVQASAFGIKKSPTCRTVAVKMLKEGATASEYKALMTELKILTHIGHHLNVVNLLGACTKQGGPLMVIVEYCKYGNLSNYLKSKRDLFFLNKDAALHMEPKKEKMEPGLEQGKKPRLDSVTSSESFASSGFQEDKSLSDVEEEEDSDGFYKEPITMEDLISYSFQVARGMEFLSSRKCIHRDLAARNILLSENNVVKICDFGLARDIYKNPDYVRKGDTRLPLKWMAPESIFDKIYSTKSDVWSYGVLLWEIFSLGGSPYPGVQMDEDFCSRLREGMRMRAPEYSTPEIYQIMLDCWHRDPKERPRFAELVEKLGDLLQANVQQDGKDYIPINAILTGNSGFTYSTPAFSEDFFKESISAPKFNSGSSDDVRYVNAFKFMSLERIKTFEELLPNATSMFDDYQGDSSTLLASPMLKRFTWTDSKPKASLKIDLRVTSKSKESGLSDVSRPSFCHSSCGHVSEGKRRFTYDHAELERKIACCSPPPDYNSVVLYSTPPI

Work on Nc1ccc2c(NC3CC3)nc(-c3ccccc3)nc2c1 [1b, N^4-Cyclopropyl-2-phenyl-4,7-quinazolinediamine] yielded a remaining activity at 10 µM (CK2) of 85%, a remaining activity at 10 µM (PKCα) of 96% and a remaining activity at 10 µM (DYRK1A) of 95%. It also gave a remaining activity at 10 µM (IGF-1R) of 81%, a remaining activity at 10 µM (JNK3) of 88% and a remaining activity at 10 µM (BRSK1) of 102%. For the same compound, the remaining activity at 10 µM (PRK2) was 103%, the remaining activity at 10 µM (PIM1) was 82% and the remaining activity at 10 µM (DYRK3) was 97%. It also gave a remaining activity at 10 µM (SYK) of 99%, a remaining activity at 10 µM (IKKε) of 89% and a remaining activity at 10 µM (PDK1) of 100%. The remaining activity at 10 µM (PKCz) was 96%, the remaining activity at 10 µM (p38β MAPK) was 89% and the remaining activity at 10 µM (CK1) was 86%. It also gave a remaining activity at 10 µM (ROCK 2) of 109%, a remaining activity at 10 µM (JNK2) of 101% and a remaining activity at 10 µM (JNK1) of 94%. For the same compound, the remaining activity at 10 µM (HIPK3) was 115%, the remaining activity at 10 µM (HIPK1) was 87% and the remaining activity at 10 µM (VEG-FR) was 95%. The remaining activity at 10 µM (PKA) was 104%, the remaining activity at 10 µM (GCK) was 91% and the remaining activity at 10 µM (p38γ MAPK) was 105%. The remaining activity at 10 µM (MKK1) was 75%, the remaining activity at 10 µM (PKBα) was 109% and the remaining activity at 10 µM (NUAK1) was 90%.
